According to patent US8021853B2, “Inhibition of the β3 subunit of L-type Ca2+ channels” (priority 2002, dated 2011):

Experiments:
[1] = tested on: islets from β3−/− mice compared to wild type mice; assay: increase in [Ca2+]i on addition of 2.5 mM extracellular Ca2+ after depletion of the Ca2+-pool; format: cell-based, mouse; settings: 2 μM; Ca2+-pool depleted
Procedure: (§1) The whole-cell configuration of the patch-clamp technique was performed as follows: pipettes were pulled from borosilicate glass, coated with Sylgard near the tips and fire-polished. The pipettes ([…]) were filled with a solution containing 150 mM N-methyl-D-glucamine, 125 mM HCl, 1.2 mM MgCl2, 10 mM EGTA, 5 mM HEPES and 3 mM MgATP. pH was adjusted to 7.15 with KOH. Bath buffer contained (in mM) NaCl 138, KCl 5.6, MgCl2 1.2, CaCl2 10, HEPES 5 and pH 7.4. Islets or isolated cells were loaded with 2 μM fura 2/AM for 30 min in KRBB. For measurements of CCh (carbamylcholine) effects in Ca^2+-free medium, KRBB containing no Ca^2+ and 100 μM EGTA was used. After loading, a single islet or cells attached to a coverslip were transferred to an open perfusion chamber and maintained at 37° C. Measurements of 340/380 nm fluorescence ratio, reflecting [Ca^2+]i, were done as described in the art (Zaitsev, S. V. et al. 1995, Proc. Natl. Acad. Sci. USA 92:9712-9716). Time constant of decay in [Ca^2+]i was calculated with a double exponential decay equation using quasi Newton algorithm (Statistica for Windows, v. 5.0, StatSoft, Inc., USA). For measurements of [Ca^2+]ER, the low affinity Ca^2+-sensitive fluorescent dye X-Rhod-5N (Molecular Probes) was employed. […] were incubated with 5 μM X-Rhod-5N/AM for 1 hour at 4° C. to ensure dye loading into intracellular compartments. […]

[2] = tested on: islets from both wild type and β3−/− mice; assay: glucose-induced [Ca2+]i oscillations in islets/β-cells (fura-2 340/380 nm fluorescence ratio); format: cell-based, mouse
Excerpt: Changes in [Ca^2+]i were next evaluated. […] The changes in [Ca^2+]i subsequent to the initial increase were categorized into three groups: slow oscillations (period of approximately 160 seconds), fast oscillations (period of approximately 10 seconds) and no oscillations. In wild type mice, 43 recordings (43 islets) were made.

[3] = tested on: islets from both β3−/− and wild type mice; assay: carbamylcholine-induced activation of PLC, [Ca2+]i in islets; format: cell-based, mouse
Procedure: as §1

[4] = tested on: islets from control and β3−/− mice; assay: insulin release in response to glucose from isolated islets; format: cell-based, mouse; settings: islets treated with thapsigargin
Procedure: Islets of Langerhans were isolated by collagenase digestion and maintained overnight in RPMI 1640 culture medium (Flow Laboratories, UK). Single cells, obtained by shaking the islets in Ca^2+-free medium, were seeded into plastic dishes. For measurements of insulin release, islets were pre-incubated in Krebs-Ringer bicarbonate buffer (KRBB) for 30 min at 37° C. Groups of 3 islets were transferred to tubes containing 0.3 ml KRBB with test substances and incubated for another 30 min at 37° C. The incubation was terminated by cooling the samples on ice. Samples were stored at −20° C. until insulin was analyzed.
To further verify this notion, changes in [Ca^2+]i and insulin exocytosis were measured simultaneously, applying a depolarizing pulse protocol mimicking an oscillatory versus a monophasic increase in [Ca^2+]i.

[5] = tested on: islets from both wild type and β3−/− mice; settings: treatment of β-cells; Roe et al. 1998; cited from earlier work

[Gd] [gadolinium]
effect on the increase in [Ca2+]i after addition of 2.5 mM extracellular Ca2+ [1]: did not affect

NCCOB(c1ccccc1)c1ccccc1 [2-APB, 2-aminoethoxydiphenyl borane]
effect on [Ca2+]i oscillations (blocking the InsP3-receptor) ([2]; β-cells from β3−/− mice): transformed [Ca^2+]i oscillations from fast into slow

C[N+](C)(C)CCOC(N)=O.[Cl-] [Carbamylcholine, carbamylcholine]
effect on [Ca2+]i [3]: produced a transient increase in [Ca^2+]i

C/C=C(/C)C(=O)O[C@H]1C(C)=C2[C@H]([C@@H]1OC(=O)CCCCCCC)[C@@](C)(OC(C)=O)C[C@H](OC(=O)CCC)[C@@]1(O)[C@H]2OC(=O)[C@@]1(C)O [thapsigargin]
effect on glucose-induced oscillations in [Ca2+]i ([2]; 1 μM, 30 min preincubation, islets from both wild type and β3−/− mice): prevented glucose-induced oscillations in [Ca^2+]i | insulin release in response to glucose, control versus β3−/− mice [4]: no different | effect on [Ca2+]i oscillations [5]: transform [Ca^2+]i oscillations into a monophasic elevation in [Ca^2+]i
